Assay [1] concerns HCV replicons (Huh-7 luc/neo cells, NS3-NS5B regions of HCV type 1b). Nature of the assay: HCV replicon assay (Huh-Luc cells, luciferase readout). In kind it is cell-based. The note with it: Hepatitis C virus, Huh-7, 72 h, three days incubation, luciferase activity. As for the experimental part:
The in vitro antiviral activity against HCV of the compounds of formula (I) was tested in a cellular HCV replicon system based on Lohmann et al. (1999) Science 285:110-113, with the further modifications described by Krieger et al. (2001) Journal of Virology 75: 4614-4624, which is further exemplified in the examples section. This model, while not a complete infection model for HCV, is widely accepted as the most robust and efficient model of autonomous HCV RNA replication currently available. […] It will be appreciated that it is important to distinguish between compounds that specifically interfere with HCV functions from those that exert cytotoxic or cytostatic effects in the HCV replicon model, and as a consequence cause a decrease in HCV RNA or linked reporter enzyme concentration. […]
The replicon cells were plated in 384 well plates in the presence of the test and control compounds which were added in various concentrations. Following an incubation of three days, HCV replication was measured by assaying luciferase activity (using standard luciferase assay substrates and reagents and a Perkin Elmer ViewLux™ ultraHTS microplate imager). […] The inhibitory activity of the compound on luciferase activity was monitored on the Huh-Luc cells, enabling a dose-response curve for each test compound. […]

The target of assay [2] is T1, full-length hepatitis C NS3 protease enzyme with NS4A cofactor (HCV NS3/4A protease) (Hepatitis C virus genotype 1a, UniProt P27958).
T1 construct: full-length hepatitis C NS3 protease enzyme
T1 sequence (P27958 1027-1657): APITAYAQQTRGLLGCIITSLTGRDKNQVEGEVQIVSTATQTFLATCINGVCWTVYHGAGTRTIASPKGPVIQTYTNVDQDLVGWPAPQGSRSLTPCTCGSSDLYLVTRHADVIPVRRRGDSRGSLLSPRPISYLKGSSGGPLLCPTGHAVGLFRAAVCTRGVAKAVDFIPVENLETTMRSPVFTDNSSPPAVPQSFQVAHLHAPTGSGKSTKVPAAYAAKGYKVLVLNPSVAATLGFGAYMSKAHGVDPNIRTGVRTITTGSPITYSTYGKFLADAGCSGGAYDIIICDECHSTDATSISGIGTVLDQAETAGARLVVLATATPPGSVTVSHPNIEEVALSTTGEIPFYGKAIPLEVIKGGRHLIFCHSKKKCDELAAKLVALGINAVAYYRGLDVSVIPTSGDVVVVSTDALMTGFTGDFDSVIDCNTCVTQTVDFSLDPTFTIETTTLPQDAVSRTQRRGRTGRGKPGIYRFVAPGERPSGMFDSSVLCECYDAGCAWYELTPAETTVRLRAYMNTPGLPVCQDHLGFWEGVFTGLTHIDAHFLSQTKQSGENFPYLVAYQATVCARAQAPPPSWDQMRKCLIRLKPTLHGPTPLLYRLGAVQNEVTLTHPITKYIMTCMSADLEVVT
Nature of the assay: HCV NS3/4A protease inhibition assay (enzymatic). In kind it is biochemical. To be noted: 1 nM enzyme, 25 μM NS4A cofactor, 0.5 μM depsipeptide substrate, 30° C., competitive inhibition model. As for the experimental part: The aim of this in vitro assay was to measure the inhibition of HCV NS3/4A protease complexes by the compounds of the present invention. This assay provides an indication of how effective compounds of the present invention would be in inhibiting HCV NS3/4A proteolytic activity.
The inhibition of full-length hepatitis C NS3 protease enzyme was measured essentially as described in Poliakov, 2002 Prot Expression & Purification 25 363 371. Briefly, the hydrolysis of a depsipeptide substrate, Ac-DED(Edans)EEAbuψ[COO]ASK(Dabcyl)-NH2 (AnaSpec, San José, USA), was measured spectrofluorometrically in the presence of a peptide cofactor, KKGSVVIVGRIVLSGK (Åke Engström, Department of Medical Biochemistry and Microbiology, Uppsala University, Sweden). [Landro, 1997 #Biochem 36 9340-9348]. The enzyme (1 nM) was incubated in 50 mM HEPES, pH 7.5, 10 mM DTT, 40% glycerol, 0.1% n-octyl-D-glucoside, with 25 μM NS4A cofactor and inhibitor at 30° C. for 10 min, whereupon the reaction was initiated by addition of 0.5 μM substrate. Inhibitors were dissolved in DMSO, sonicated for 30 sec. and vortexed. The solutions were stored at −20° C. between measurements.
The final concentration of DMSO in the assay sample was adjusted to 3.3%. The rate of hydrolysis was corrected for inner filter effects according to published procedures. [Liu, 1999 Analytical Biochemistry 267 331-335]. […]

This passage reports EC50 and Ki results from US8227407B2, “Macrocyclic inhibitors of hepatitis C virus” (Medivir AB, priority 2008, dated 2012).

Each structure is given as a SMILES string.

In assay [1], `CCN(C)S(=O)(=O)NC(=O)[C@@]12C[C@H]1/C=C\CCCCN(C)C(=O)[C@@H]1C[C@H](Oc3cc(-c4nc(C(C)C)cs4)nc4cc(OC)ccc34)C[C@H]1C(=O)N2` [Compound 38, N-[17-[2-(4-isopropylthiazol-2-yl)-7-methoxyquinolin-4-yloxy]-13-methyl-2,14-dioxo-3,13-diazatricyclo[13.3.0.0^4,6]octadec-7-ene-4-carbonyl]-[(ethyl)(methyl)amino]sulfonamide] gave an EC50 of 0.3 µM. The affinity in assay [2] corresponds to a Ki of 24 nM.
The matching figures for `COc1ccc2c(O[C@@H]3C[C@H]4C(=O)N[C@]5(C(=O)NS(=O)(=O)N(C)C)C[C@H]5/C=C\CCCCN(C)C(=O)[C@@H]4C3)cc(-c3nc(C(C)C)cs3)nc2c1` [Compound 37, N-[17-[2-(4-isopropylthiazol-2-yl)-7-methoxyquinolin-4-yloxy]-13-methyl-2,14-dioxo-3,13-diazatricyclo[13.3.0.0^4,6]octadec-7-ene-4-carbonyl](dimethylamino)sulfonamide]: 0.3 µM and 24 nM.
